In this test the test system is pentobarbital-induced sleep. Nature of the test: Loss Of Righting Reflex (LORR) test, pentobarbital-induced sleep in mice. It is filed as in vivo, mouse (7-week-old male Balb/C mice).
Where [1] appears, read: LORR test, IP treatment 30 min before pentobarbital 30 or 40 mg/kg IP, diazepam 3 mg/kg.

These results are taken from patent US20230087359A1, “CANNABINOID COMPOSITIONS AND METHODS OF USE THEREOF” (DAY THREE LABS MAN[…]., priority 2017, published 2023).

Take `CN1C(=O)CN=C(c2ccccc2)c2cc(Cl)ccc21` [diazepam]: the “percentage of mice in treatment group that fell asleep after pentobarbital administration” value (Example 1, FIG. 3) worked out at 92%. Further, for the setting “Example 1, FIG. 4”, the “percentage of subjects with a transient awakening (woke up once) during the sleep session” value was found to be 25% and the “percentage of subjects with no transient awakenings during the sleep session” value amounted to 75%. Also, the “percentage of mice in treatment group that fell asleep after pentobarbital administration (response rate)” value (Example 2, FIG. 7) is 86%. Under setting [1], the mean sleep duration was in the range of 60 to 90 min and the mean sleep onset is 3 to 5 min.
